Reference: patent US9597407B2, “Targeted antimicrobial moieties” (C3 Jian, Inc., priority 2009, dated 2017)
Entries after “also recorded” stand apart in the source; their conditions may differ.

How the values were obtained:
microorganisms = experiment: Morphology, biofilm and growth disruption by peptides (Table 5); assay type: cell-based; design: key: A: Peptide aggregates; B: Less hyphal formation; Clumps; Diffuse clumps and small polyps; F: Diffuse growth; H: Thin; I: Growth inhibition; Microcolony formation; Rippled; Small polyps; Thick; W: Halo formation on top, microlonies on bottom
From the text: In certain embodiments peptides that induce alterations in phenotype or other biological activities can also be used as antimicrobial effector moieties.

bacteria = experiment: Binding of targeting peptides to microorganisms (Table 3); settings: peptide binding in aqueous buffers that varied depending on peptide solubility; preferably 1x PBS

Substance	Organism, effect (morphology, biofilm and growth disruption) (microorganisms; S. pneumoniae)	Target(s) (microorganism bound by the targeting peptide) (bacteria)	Organism, effect (morphology, biofilm and growth disruption) (microorganisms; S. mutans)	Organism, effect (morphology, biofilm and growth disruption) (microorganisms; F. nucleatum)	other results
PF-699 (chain 1 GRAGVKCRRPTGR; chain 2 GRAGVKCRRPTGR; Peptide with targeting and/or antimicrobial activity)	S. pneumoniae (A)	Mycobacteria spp	–	–	–
PF-700 (chain 1 LNWPFTGR; chain 2 LNWPFTGR; Peptide with targeting and/or antimicrobial activity)	S. pneumoniae (C)	Mycobacteria spp	–	–	–
PF-702 (chain 1 LSGRLAGRR; chain 2 LSGRLAGRR; Peptide with targeting and/or antimicrobial activity)	S. pneumoniae (H)	Mycobacteria spp	–	–	–
PF-704 (chain 1 APAARAAL; chain 2 APAARAAL; Peptide with targeting and/or antimicrobial activity)	S. pneumoniae (C)	Mycobacteria spp	–	–	–
PF-776 (VSILLYLSATIILPNVLRLLVARAIIVRV; Peptide with targeting and/or antimicrobial activity)	S. pneumoniae (C)	S. epidermidis and M. luteus and P. mirabilis and C. albicans and MRSA and S. pneumoniae and E. faecalis	S. mutans (D)	–	Organism, effect (morphology, biofilm and growth disruption) (microorganisms; E. coli): E. coli (C); Organism, effect (morphology, biofilm and growth disruption) (microorganisms; M. luteus): M. luteus (C); Organism, effect (morphology, biofilm and growth disruption) (microorganisms; MRSA): MRSA (D); Organism, effect (morphology, biofilm and growth disruption) (microorganisms; S. epidermidis): S. epidermidis (D)
PF-C052 (SRFRNGV; Peptide with targeting and/or antimicrobial activity)	–	A. naeslundii; also recorded: F. nucleatum; also recorded: S. mutans	–	–	Organism, effect (morphology, biofilm and growth disruption) (microorganisms; P. gingivalis): P. gingivalis (H)
PF-C055 (YNLSIYIYFLHTITIAGLITLPFII; Peptide with targeting and/or antimicrobial activity)	–	A. naeslundii; also recorded: F. nucleatum; also recorded: P. gingivalis; also recorded: S. mutans	S. mutans (I)	F. nucleatum (T)	–
PF-C057 (YFWWYWVQDCIPYKNNEVWLELSNNMK; Peptide with targeting and/or antimicrobial activity)	–	A. naeslundii; also recorded: F. nucleatum; also recorded: P. gingivalis; also recorded: S. mutans	S. mutans (I)	–	–
PF-C062 (PLARATEVVATLFIICSLLLYLTR; Peptide with targeting and/or antimicrobial activity)	–	A. naeslundii; also recorded: F. nucleatum; also recorded: P. gingivalis; also recorded: S. mutans; also recorded: T. denticola	S. mutans (I)	F. nucleatum (T)	–
PF-C064 (DEEALEMGANLYAQFAIDFLNSKK; Peptide with targeting and/or antimicrobial activity)	–	A. naeslundii; also recorded: F. nucleatum; also recorded: P. gingivalis; also recorded: S. mutans; also recorded: T. denticola	–	F. nucleatum (T)	–
